Converted amounts (≈) assume the structure as drawn. “And” between values parts separate entries of the source, which are not always exact repeats. Equal entries are not always repeated. Where two headings read alike, the source gives them in different places.
How the values were obtained:
guinea pig β2AR = guinea pig β2AR (Cavia porcellus, UniProt Q8K4Z4); assay: 125I-CYP radioligand competition binding, guinea pig β2AR; conditions: Cmpd-6 [25 uM]
guinea pig lung slices = assay: Methacholine-induced airway constriction in guinea pig lung slices; type: cell-based; conditions: for EC50: read-out: MCh EC50
Protocol: All curve fits were generated using the software program GraphPad Prism. Data are represented as mean ± SEM obtained from 6 guinea pigs.
(§1) Precision-cut lung slices were prepared as described previously ([61], [62]). A 3% solution of low melting-point agarose (Gerbu Biotechnik GmbH) in ultrapure water was prepared by heating it a microwave until fully dissolved. […] After filling, the lungs were covered with ice for 30 minutes to solidify the agarose for slicing. […] Lung slices were cut at a thickness of 500 μm and washed several times with slicing buffer to remove debris and washout the isoproterenol. Slices were incubated overnight in a 60 mm dish in sterile incubation buffer: MEM composed of lung slice buffer supplemented with 0.5 mM sodium pyruvate, 1 mM glutamine (Gibco), MEM-amino acids mixture (1:50), MEM-vitamins mixture (1:100; Gibco), and penicillin-streptomycin (1:100; Gibco), pH = 7.2, at 37°C in a CO2- and humidity-controlled atmosphere.
(§2) After washing the slices in medium, individual guinea pig lung slices were mechanically maintained with a Teflon ring with an inner diameter of 7 mm and covered with 1 mL of incubation buffer. […] Image acquisition software (NIS-Elements, Nikon) was used to quantify airway luminal area. Images of the airways were acquired every 2 seconds during the whole course of the experiment, starting 2 minutes before the addition of any agent to allow for baseline measurements of the airway caliber. For each methacholine or ovalbumin concentration, the maximal airway constriction was expressed as percentage of the initial (baseline) airway luminal area and plotted against that concentration.

human lung slices = assay: Methacholine-induced airway constriction in human lung slices; type: cell-based; set-up: key to MCh-induced airway constriction response (Figure 7): % of initial airway luminal area; conditions: for MCh-induced airway constriction response (Figure 7): 1 µM Fenoterol + 25 µM Cmpd-6, donor 1-4
Source text: All curve fits were generated using the software program GraphPad Prism. Data are represented as mean ± SEM of 4 human donors (see Table 3 for statistical analyses).
Precision-cut human lung slices were purchased from AnaBios and stored in a liquid nitrogen tank. Lung tissue was obtained postmortem and consent for research was obtained by AnaBios for all donors. Characteristics of the donors of the lung tissue are shown in Supplemental Table 2. Slices were rapidly thawed following instructions from AnaBios.
After washing, individual human lung slices were mechanically maintained with a Teflon ring with an inner diameter of 7 mm and covered with 1 mL of incubation buffer. […] Image acquisition software (NIS-Elements, Nikon) was used to quantify airway luminal area. […] Airway constriction in response to each methacholine concentration was expressed as percentage of the initial airway luminal area.

[1] = tested on: lung slices obtained from ovalbumin-sensitized guinea pigs; assay: Ovalbumin-induced airway constriction in lung slices from ovalbumin-sensitized guinea pigs; type: cell-based, guinea pig; set-up: key to OVA-induced airway constriction response (Figure 6): max constriction as % of initial (baseline) airway luminal area; conditions: 0.1 µM Fenoterol + 25 µM Cmpd-6, Exp1-5
Source text: All curve fits were generated using the software program GraphPad Prism. Data are represented as mean ± SEM of 4–5 guinea pigs (see Table 2 for statistical analyses).
Outbred, male, specified pathogen-free Dunkin Hartley guinea pigs (Charles River Laboratory) weighing 200 to 400 g were used. The animals were housed in pairs under a 12-hour light/dark cycle in a temperature- and humidity-controlled room with food and tap water ad libitum. For studies in the guinea pig model of allergic asthma, animals were actively IgE-sensitized to ovalbumin by injecting a suspension containing 100 μg/mL ovalbumin and 100 mg/mL Al(OH)3 in saline. Each animal was injected with 1.0 mL of suspension: 0.5 mL was injected i.p. and 0.5 mL was divided over 7 s.c. sites close to lymph nodes in the neck, paws, and lumbar regions ([24]). Animals were euthanized at least 4 weeks after sensitization.
as §1, §2

[2] = Solubility by formation of precipitates under the microscope; type: physicochemical
Protocol: *Solubility was determined by formation of precipitates observed under the microscope. **Cell […]
binds an intracellular region of the β2AR. ***Log P, Log of the Partition coefficient that was calculated using ChemDraw Professional (version 22.2, PerkinElmer). DMSO, dimethyl […]
(1 picture or pasted object on this page, not shown here)

guinea pig β2AR, sequence (Q8K4Z4 whole entry): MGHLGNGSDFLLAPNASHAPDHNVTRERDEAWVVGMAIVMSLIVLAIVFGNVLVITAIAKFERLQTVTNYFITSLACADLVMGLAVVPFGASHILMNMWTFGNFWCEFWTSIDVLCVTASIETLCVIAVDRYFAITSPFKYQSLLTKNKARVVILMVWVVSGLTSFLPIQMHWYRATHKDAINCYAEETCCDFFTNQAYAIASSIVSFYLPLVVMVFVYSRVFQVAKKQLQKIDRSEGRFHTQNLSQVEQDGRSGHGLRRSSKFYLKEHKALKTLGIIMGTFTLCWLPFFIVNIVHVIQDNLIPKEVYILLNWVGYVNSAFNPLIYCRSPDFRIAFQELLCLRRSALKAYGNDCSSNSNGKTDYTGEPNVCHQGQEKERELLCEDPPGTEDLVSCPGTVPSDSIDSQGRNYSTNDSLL

EC50 (guinea pig lung slices; 1 μM Fenoterol + 25 μM Cmpd-6): 590 ± 90 nM
EC50 (guinea pig lung slices; 10 μM Fenoterol + 25 μM Cmpd-6): 980 ± 120 nM
EC50 (guinea pig lung slices; 25 μM Cmpd-6 alone): 280 ± 50 nM
Solubility ([2]; Aqueous): 0.032 mM (≈ 0.0196 mg/mL)
Solubility ([2]; DMSO): 100 mM (≈ 61.2 mg/mL)
Structure (SMILES): COc1ccc(Sc2ccc(S(=O)(=O)N(C)C(C)C)cc2C(=O)N[C@H](CC(N)=O)Cc2ccc(C(C)(C)C)cc2)cc1 [Cmpd-6]
125I-CYP binding, Salm competition curve (Figure 4F) (guinea pig β2AR; Log [Salm] (M) -6.90309): 67.1995 and 66.2422 and 79.0931 and 66.807
125I-CYP binding, Salm competition curve (Figure 4F) (guinea pig β2AR; Log [Salm] (M) -7.50515): 88.5873 and 88.904 and 95.0429 and 88.3948
125I-CYP binding, Salm competition curve (Figure 4F) (guinea pig β2AR; Log [Salm] (M) -8.10721): 97.9774 and 97.2972 and 97.374 and 97.0377
125I-CYP binding, Salm competition curve (Figure 4F) (guinea pig β2AR; Log [Salm] (M) -8.70927): 99.3713 and 100.399 and 100.671 and 100.779
125I-CYP binding, Salm competition curve (Figure 4F) (guinea pig β2AR; Log [Salm] (M) -9.31133): 100.672 and 102.486 and 99.6753 and 100.402
125I-CYP binding, Salm competition curve (Figure 4F) (guinea pig β2AR; Log [Salm] (M) -9.91339): 96.4457 and 99.6997 and 100.705 and 99.5228
125I-CYP binding, Salm competition curve (Figure 4F) (guinea pig β2AR; Log [Salm] (M) -11 (DMSO)): 100.872 and 95.2897 and 98.0192 and 98.0519
MCh Emax (guinea pig lung slices; 1 μM Fenoterol + 25 μM Cmpd-6): 112.3 ± 9.5%
MCh Emax (guinea pig lung slices; 10 μM Fenoterol + 25 μM Cmpd-6): 100.9 ± 3.2%
Augmentation of airway smooth muscle responsiveness to fenoterol (guinea pig lung slices; 25 μM Cmpd-6): 10 fold
MCh Emax (guinea pig lung slices; 25 μM Cmpd-6 alone): 100.0 ± 2.0%
MCh Emax (human lung slices; 1 μM Fenoterol + 25 μM Cmpd-6): 26.5 ± 4.4^A %
MCh pD2 (human lung slices; 1 μM Fenoterol + 25 μM Cmpd-6): 5.52 ± 0.24^B –log M
MCh-induced airway constriction response (Figure 7) (human lung slices; -Log [MCh] 3.5): 81.9 and 70.9 and 77.9 and 77.7
MCh-induced airway constriction response (Figure 7) (human lung slices; -Log [MCh] 4): 85.4 and 70.2 and 85.0 and 81
MCh-induced airway constriction response (Figure 7) (human lung slices; -Log [MCh] 4.5): 87.4 and 88.5 and 81.1 and 82.0
MCh-induced airway constriction response (Figure 7) (human lung slices; -Log [MCh] 5): 88.4 and 90.1 and 84.2 and 85.0
MCh-induced airway constriction response (Figure 7) (human lung slices; -Log [MCh] 5.5): 89.6 and 91.5 and 87.5 and 90.7
MCh-induced airway constriction response (Figure 7) (human lung slices; -Log [MCh] 6): 90.7 and 94.3 and 90.0 and 93.1
MCh-induced airway constriction response (Figure 7) (human lung slices; -Log [MCh] 6.5): 93.1 and 102.4 and 95.5 and 94.0
MCh-induced airway constriction response (Figure 7) (human lung slices; -Log [MCh] 7): 93.8 and 102.2 and 98.0 and 97.4
MCh-induced airway constriction response (Figure 7) (human lung slices; -Log [MCh] 7.5): 95.1 and 104.8 and 98.8 and 98.9
MCh-induced airway constriction response (Figure 7) (human lung slices; -Log [MCh] 8): 99.2 and 103.1 and 100.8 and 101.6
MCh-induced airway constriction response (Figure 7) (human lung slices; -Log [MCh] 8.5): 96.5 and 109.1 and 101.7 and 103.0
MCh-induced airway constriction response (Figure 7) (human lung slices; -Log [MCh] 9): 95.6 and 107.7 and 98.0 and 98.3
Enhancement of the β2-agonist responsiveness (human lung slices; 25 μM Cmpd-6 + 1 μM fenoterol vs 10 μM fenoterol): 10 fold
OVA-induced airway constriction response (Figure 6) ([1]; [OVA] 0.001 ng/ml): 101.6 and 100.0 and 98.0 and 99.2 and 107.5
OVA-induced airway constriction response (Figure 6) ([1]; [OVA] 0.01 ng/ml): 101.3 and 100.0 and 95.9 and 96.7 and 107.5
OVA-induced airway constriction response (Figure 6) ([1]; [OVA] 0.1 ng/ml): 101.6 and 100.0 and 97.5 and 97.8 and 107.5
OVA-induced airway constriction response (Figure 6) ([1]; [OVA] 1 ng/ml): 101.6 and 99.9 and 95.4 and 99.0 and 107.5
OVA-induced airway constriction response (Figure 6) ([1]; [OVA] 10 ng/ml): 101.3 and 109.6 and 95.4 and 102.0 and 106.4
OVA-induced airway constriction response (Figure 6) ([1]; [OVA] 100 ng/ml): 102.3 and 105.5 and 95.6 and 99.3 and 107.0
OVA-induced airway constriction response (Figure 6) ([1]; [OVA] 1000 ng/ml): 102.2 and 108.2 and 105.1 and 101.8
OVA-induced airway constriction response (Figure 6) ([1]; [OVA] 10000 ng/ml): 101.8 and 96.8 and 105.1 and 98.0 and 79.6
OVA-induced airway constriction response (Figure 6) ([1]; [OVA] 100000 ng/ml): 101.6 and 81.6 and 100.1 and 89.5 and 64.4
OVA-induced airway constriction response (Figure 6) ([1]; [OVA] 1000000 ng/ml): 101.0 and 77.3 and 94.7 and 90.3 and 74.1
